From paper PMC4979060, “Structural basis of metallo-β-lactamase, serine-β-lactamase and penicillin-binding protein inhibition by cyclic boronates” (Nature Communications, 2016) come the findings set out here.

The target of one assay is T1, NDM-1 (Klebsiella pneumoniae, UniProt C7C422).
T1 construct: made in house; host or cells: E. coli
Put plainly: Fluorogenic β-lactamase inhibition assay (FC-5 substrate), NDM-1. Format: biochemical. Here is the method:
(§1) Kinetic and inhibition analyses, and ^19F NMR studies[10] against bacterial β-lactamases were performed as described. The FC-5 cephalosporin[9] was used as substrate for BcII, VIM-2, IMP-1, NDM-1, SPM-1, TEM-1 and OXA-10, meropenem[28] for CphA and nitrocefin[34] for PBP 3 and PBP 5.
(§2) In brief IC50 values were determined by preincubation of the appropriate amount of enzyme with the cyclic boronates in the assay buffers for 10 min at room temperature prior to the initiation of the assay by the addition of the appropriate substrate. The enzyme concentrations used are the following: 1 nM BcII, 100 nM VIM-2, 10 nM IMP-1, 10 nM NDM-1, 1 nM SPM-1, 1 nM TEM-1, 1 nM OXA-10, 2.5 nM CphA, 4 μM PBP 3 and 5 μM PBP 5; note that the final concentrations are stated. The assay buffers used are the following: 50 mM HEPES, pH 7.2 supplemented with 1 μg BSA, 1 μg ZnSO4 and 0.01% Triton for BcII, VIM-2, IMP-1, NDM-1 and SPM-1, 15 mM MES, pH 6.5 for CphA, 50 mM HEPES, pH 7.2 supplemented with 200 mM NaCl and 0.01% Triton 100 for TEM-1, 100 mM sodium phosphate, pH 7.2 supplemented with 50 mM NaHCO3 and 0.01% Triton 100 for OXA-10 and 50 mM HEPES, pH 7.2 supplemented with 200 mM NaCl and 0.01% Triton 100 for PBP 3 and PBP 5. The amount of substrates used is the following: 5 μM for BcII, VIM-2, IMP-1, NDM-1 and SPM-1, 10 μM for TEM-1 and OXA-10, 125 μM for CphA and 25 μM for PBP 3 and PBP 5; note that the final concentrations are stated.
(§3) The experiments were performed using a PHERAstar FS microplate reader (BMG Labtech) at room temperature (24–25 °C). All enzymes and inhibitors were prepared in the specific assay buffer. The kinetic values in this study are the means from at least three independent measurements; at least nine different concentrations of the inhibitor were used to determine the kinetic parameters (IC50). The IC50 values were determined using the software package Graph Prism 5.

The next assay deals with SPM-1 (Pseudomonas aeruginosa, UniProt Q8G9Q0). Description: Fluorogenic β-lactamase inhibition assay (FC-5 substrate), SPM-1. The class given is biochemical. Here is the method: as §1, §2, §3
Sequence of SPM-1 (Q8G9Q0 entry or part of it): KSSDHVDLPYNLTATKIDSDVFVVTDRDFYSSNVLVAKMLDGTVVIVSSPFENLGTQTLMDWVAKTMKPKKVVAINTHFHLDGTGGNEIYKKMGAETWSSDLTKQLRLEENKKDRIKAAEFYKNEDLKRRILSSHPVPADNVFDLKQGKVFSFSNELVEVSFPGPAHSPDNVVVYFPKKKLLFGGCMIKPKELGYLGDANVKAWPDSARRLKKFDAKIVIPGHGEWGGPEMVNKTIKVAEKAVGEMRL
A further assay has as its target T2, CphA (Aeromonas hydrophila, UniProt P26918).
T2 construct: made in house; host or cells: E. coli
Description: B2 MBL inhibition assay (meropenem substrate), CphA. Format: biochemical, Aeromonas hydrophilia. Here is the method: as §1, §2, §3

For the next assay, the target named is T3, PBP 3 (Pseudomonas aeruginosa, UniProt G3XD46).
T3 construct: made in house; host or cells: E. coli
T3 sequence (G3XD46 whole entry): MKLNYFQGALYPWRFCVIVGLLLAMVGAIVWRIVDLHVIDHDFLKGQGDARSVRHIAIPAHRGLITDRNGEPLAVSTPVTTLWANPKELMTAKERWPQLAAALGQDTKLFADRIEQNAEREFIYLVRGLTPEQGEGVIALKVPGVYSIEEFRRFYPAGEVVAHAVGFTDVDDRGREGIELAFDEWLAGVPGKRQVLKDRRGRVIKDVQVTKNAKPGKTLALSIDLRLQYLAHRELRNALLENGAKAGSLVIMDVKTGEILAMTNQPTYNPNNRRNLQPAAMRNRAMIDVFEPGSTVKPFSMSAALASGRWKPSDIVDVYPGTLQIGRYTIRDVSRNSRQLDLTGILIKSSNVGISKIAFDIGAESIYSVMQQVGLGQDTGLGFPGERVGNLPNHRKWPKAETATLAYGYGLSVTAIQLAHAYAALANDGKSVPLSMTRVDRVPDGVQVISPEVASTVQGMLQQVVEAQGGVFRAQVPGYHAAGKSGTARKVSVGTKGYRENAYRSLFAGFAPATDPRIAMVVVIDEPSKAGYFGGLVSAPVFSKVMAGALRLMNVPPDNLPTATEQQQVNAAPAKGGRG
Put plainly: PBP inhibition assay (nitrocefin substrate), PBP 3. The class given is biochemical. Conditions: NI = no inhibition at 100 μM, read-out: IC50 (μM)/pIC50 (converted). The procedure: as §1, §2, §3

A further assay deals with K. pneumoniae IR8. Put plainly: microbe, parasite or virus in culture. The class given is cell-based. To be noted: Klebsiella pneumoniae; 2 alone; K. pneumoniae IR8 (blaSHV-1; blaDHA-1; blaCTX-M-15; blaTEM-1; blaNDM-1); read-out: 2 MIC. The text has this:
(§4) Bacterial strains: E. coli ATCC 25922 (ref. [35]) and K. pneumoniae NCTC 5055 (ref. [36]) were used as reference strains. K. pneumoniae Ecl8 (ref. [16]) and its ramR knock-out[37] were used as previously described. K. pneumoniae strain IR8 (ref. [40]), and E. coli strains IR10 and IR60 (ref. [17]) were generous gifts of Prof. T.R. Walsh. Plasmid pSU18:NDM-1 contains the complete blaNDM-1 open reading frame, together with its promoter, cloned into plasmid pSU18 (ref. [41]). The recombinant plasmid was made by PCR amplifying the blaNDM-1 gene and surrounding sequences from E. coli IR10 with primers NDM1F 5′- […] -3′ and NDM1R 5′- GGCGATGACAGCATCATC -3′, TA cloning the amplicon into pCR2.1 TOPO (Invitrogen) and subcloning into pSU18 using BamHI and XbaI.
(§5) MIC values were determined by broth microdilution, in triplicate, in cation-adjusted Mueller Hinton broth (Sigma) according to the Clinical Laboratory Standards Institute (CLSI) guidelines. Experiments were carried out in microtitre plates (Corning) containing the medium plus meropenem (Sequoia Research Products, Pangbourne, UK) and/or inhibitor 2 as appropriate. Chloramphenicol (20 μg ml^−1) was included in assays of strains (K. pneumoniae Ecl8 and derivative) that carried pSU18 plasmids or derivatives (pSU18:NDM-1) to ensure maintenance of plasmids throughout. Inhibitor 2 was dissolved in DMSO to 100 mg ml^−1 and diluted in broth. The final concentration of DMSO in the assays was kept constant at 0.01% (experiments using 10 μg ml^−1 inhibitor) or 0.03% (experiments using 25 μg ml^−1 inhibitor). Plates were incubated overnight at 37 °C for 18–24 h and absorbance at 600 nm read using a Polarstar Omega (BMG LabTech) plate reader.

The test system of another assay is E. coli ATCC 25922. Description: MIC by broth microdilution. Format: cell-based. To be noted: data not shown.
Source text: as §4, §5

The next assay relates to E. coli IR10. Put plainly: MIC by broth microdilution. The class given is cell-based. Conditions: Escherichia coli, IR10, read-out: 2 MIC.
Source text: as §4, §5
Background: Broth dilution looks for growth in wells or tubes with falling amounts of substance.

The next assay has as its system E. coli IR60. Put plainly: MIC by broth microdilution. Format: cell-based. To be noted: Escherichia coli, IR60, read-out: 2 MIC.
Source text: as §4, §5

In assay [1] the test system is K pneumoniae Ecl8 ΔramR pSU18:NDM-1. Description: MIC by broth microdilution. Format: cell-based. Conditions: Klebsiella pneumoniae, read-out: 2 MIC, 2 alone; Ecl8 ΔramR pSU18:NDM-1 (blaSHV-1; blaNDM-1).
Source text: as §4, §5

Assay [2] deals with K pneumoniae Ecl8 ΔramR pSU18. Description: MIC by broth microdilution. The class given is cell-based. Conditions: Klebsiella pneumoniae, read-out: 2 MIC.
Source text: as §4, §5

In another assay the test system is K. pneumoniae Ecl8 pSU18. Put plainly: MIC by broth microdilution. Format: cell-based. To be noted: Klebsiella pneumoniae, ECL8PSU18, read-out: 2 MIC.
Source text: as §4, §5

For a further assay, the system named is K. pneumoniae NCTC 5055. Description: MIC by broth microdilution. To be noted: data not shown. Format: cell-based.
Source text: as §4, §5

T1 sequence (C7C422 29-270, looked up, species assumed): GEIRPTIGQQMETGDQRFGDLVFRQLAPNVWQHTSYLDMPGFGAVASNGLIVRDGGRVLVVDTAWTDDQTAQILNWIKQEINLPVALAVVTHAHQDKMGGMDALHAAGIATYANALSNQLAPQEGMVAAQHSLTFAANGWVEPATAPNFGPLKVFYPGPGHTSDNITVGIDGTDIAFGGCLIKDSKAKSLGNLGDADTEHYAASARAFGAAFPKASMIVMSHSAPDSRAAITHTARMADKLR
T2 sequence (P26918 28-254): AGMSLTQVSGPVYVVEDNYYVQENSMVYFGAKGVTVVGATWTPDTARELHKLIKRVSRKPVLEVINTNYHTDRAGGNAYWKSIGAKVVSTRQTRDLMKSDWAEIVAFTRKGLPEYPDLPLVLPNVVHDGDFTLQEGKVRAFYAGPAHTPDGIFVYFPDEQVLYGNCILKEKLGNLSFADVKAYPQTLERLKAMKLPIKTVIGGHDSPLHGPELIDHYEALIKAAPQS

Take `NCc1ccc(C(=O)N[C@H]2Cc3cccc(C(=O)O)c3O[B-]2(O)O)cc1` [compound 2]: the pIC50 against NDM-1 was 7.5; against SPM-1 it was 4.7; on CphA, greater than 4. Also, the IC50 is 0.029 µM against NDM-1 (10 min preincubation), 16.7 µM at SPM-1 (10 min preincubation), greater than 100 µM on CphA (10 min preincubation) and greater than 100 µM on PBP 3. Further, the MIC (in the assay with K. pneumoniae IR8; with E. coli IR10; with E. coli IR60; in [1]; in assay [2]; with K. pneumoniae Ecl8 pSU18) was greater than 128 µg/mL each time. The “antibacterial activity of 2 alone (highest concentration without activity)” value with E. coli ATCC 25922 and in the assay with K. pneumoniae NCTC 5055 was greater than 128 µg/mL in each case.

By pIC50 is commonly meant the IC50 on a negative log10 scale, so that one unit is a factor of ten.
